Data as given in patent US7402433B2, “Method of in-vitro micropropagation of Piper longum plants” (Reliance Life Sciences Pvt. Ltd., priority 2003, dated 2008).

Experiments:
Type in all cases: cell-based
[1] = test system: lateral bud (meristematic) explant of Piper longum; assay: Induction of rhizogenesis from lateral bud explants on culture initiation medium (MS + NAA)
Description: Preparing culture initiation medium by using MS basal medium described by Murashige and Skoog in 1968. To the MS basal medium, sucrose (2-4%), agar powder (0.7-1.2%), 100 mg/L myo-inositol and Naphthalene Acetic Acid (NAA) (0.01-0.5 mg/L) was added. This medium was autoclaved at 15 psi for 20 min and then cooled to solidify at room temperature.
Using sterilized forceps, each isolated and surface sterilized lateral bud was inoculated in a test tube containing 15 ml of above-mentioned medium; by placing the cut end of the lateral buds touching the medium.
Incubating the inoculated explants in dark at 23° C. +/−1° C. for 7-15 days. By this time, 6-7 root primordia appear from the basal cut end of all the lateral buds.
Transferring incubated cultures in light having 2000-4000 lux light intensity.
A photoperiod of 16 hours was provided followed by a dark period of 8 hours daily.
Allowing each root to grow to an average size of […] in 45 days.
A lateral bud (meristematic) explant from any position of a young or mature plant of Piper longum was taken and cultured in an MS basal medium supplemented with sucrose (2-4%), NAA (0.1-0.5 mg/l) and gelled with agar (0.7-1.2%). These were incubated in dark for 10 days at 23° C.±1° C. and transferred to a light intensity of 1000-3000 lux for 16 Hrs. followed by 8 Hrs. dark period resulting into rhizogenesis, producing 6-7 root like organs, by direct organogenosis from meristematic tissues of lateral buds, which grew up to 1.5 cm in length by 45th day of isolation.

[2] = test system: root segments (rhizogenic tissues) of Piper longum; assay: Shoot bud proliferation from root segments on MS medium with BAP; conditions: 23° C.
Description: Sub-culturing the 18 root segments separately onto MS basal medium supplemented with Benzyl Amino Purine (BAP) (0.5-3 mg/L), 2-4% sucrose, 100 mg/l myo-inositol and 0.7-1.2% agar for solidifying the medium.
Cultures were kept at 23° C. +/−1° C. under 2000-4000 Lux light intensity for a photoperiod of 16 hours followed by a dark period of 8 hours.
Each segment produced 50-55 adventitious shoot buds i.e. (18×50=900 shoot buds).

[3] = test system: regenerated shoots of Piper longum; assay: Rooting of regenerated shoots on MS medium with IBA; conditions: IBA 0.1-3.1 mg/L
Description: 2.5-3 cm long shoots with 2-3 nodes were carefully separated from the culture clumps using a sterile scalpel under LF.
Sub-culturing 10 separated shoots in a wide mouthed bottle containing MS basal medium fortified with Indole Butyric Acid (IBA) (1-3 mg/L), 2-4% sucrose, 100 mg/L myo-inositol and 0.7-1.2% agar.
Rooting of the regenerated shoots under reduced light 1000-3000 Lux for 28 days. Photoperiod and temperatures remains the same as before.

Naphthalene Acetic Acid [NAA]
root primordia appearing from the basal cut end of the lateral buds ([1]; NAA 0.01-0.5 mg/L in MS basal medium, dark, 23° C. +/−1° C., 7-15 days): 6-7 | root like organs produced by direct organogenesis (rhizogenesis) ([1]; NAA 0.1-0.5 mg/l in MS basal medium, 10 days dark at 23° C., then 1000-3000 lux 16 Hrs./8 Hrs. dark): 6-7 | length of root like organs ([1]; NAA 0.1-0.5 mg/l, by 45th day of isolation): up to 1.5 cm

c1ccc(CNc2ncnc3[nH]cnc23)cc1 [BAP, Benzylaminopurine]
adventitious shoot buds produced per root segment ([2]; BAP 0.5-3 mg/L in MS basal medium, 2000-4000 Lux, 16 hours photoperiod): 50-55 | adventitious shoot bud formation ([2]; BAP 0.5-3 mg/L, 0.5 cm long root segments, 2000-4000 lux, 16 Hrs. light/8 Hrs. dark): adventitious shoot bud formation from all the root segments

Indole Butyric Acid [IBA]
response of separated shoots (rooting) [3]: All separated shoots were responsive | root system from the basal cut ends of shoots ([3]; in 4 weeks time): produced healthy root system
